Results on three molecules are retold here after publication PMC7887271, “Fast acting allosteric phosphofructokinase inhibitors block trypanosome glycolysis and cure acute African trypanosomiasis in mice” (Nature Communications, 2021).

Values joined by “and” are separate entries in the source; they are usually repeats but may differ in a detail not shown here. Identical values can stand only once. Like-named read-outs stand apart in the source and are kept apart here.

For data set [1], the system named is T. b. brucei GVR35-VSL2. Description: Mouse model of stage 1 and stage 2 HAT, bioluminescence imaging. The format is in vivo, T. b. brucei in female CD-1 mice. Conditions: for Side head bioluminescence - Total Flux: D23, individual mice, Supp_Fig13; for parasitaemia in brains of saline-perfused mice: stage 2, day 23, ex vivo; for bioluminescence signal in the body, stage 2 treatment: treatment from day 21. An excerpt:
An alternative mouse model for stage 1 (acute) and stage 2 (CNS-involved) HAT has been developed using a transgenic cell line derived from the pleiomorphic T. b. brucei GVR35 that expresses red-shifted firefly luciferase[17],[18]. […] T. b. brucei GVR35-infected mice present stage 1 disease by day 7 post infection with progression to stage 2 by day 21. By injecting the mouse with luciferin, the level of parasitaemia can be estimated in real time by monitoring the luminescence. Unlike monomorphic Lister 427 T. b. brucei, the pleiomorphic GVR35 T. b. brucei is controlled by a quorum-sensing mechanism resulting in the significant increase in survival time in mice and lower blood parasitaemia that occurs in waves. This extended survival time is also accompanied by parasite dissemination to multiple tissues and organs, including the skin, adipose tissue, lung and brain, with parasite loads increasing over time[17],[19].
For the mouse model of stage 1 and stage 2 HAT T. b. brucei GVR35-VSL2 parasites (3 × 10^4) were injected into a single donor female CD-1 mouse intraperitoneally. Once infection was established, starting on day 7 for stage 1 studies and day 21 for stage 2 studies, mice were either left untreated (n = 3) or dosed by oral gavage with CTCB compound in Cremophor EL: EtOH: D-PBS (30:10:60 v/v; n = 6). Progression of T. b. brucei GVR35-VSL2 infection was monitored primarily by in vivo bioluminescence imaging of infected mice using an IVIS Spectrum (PerkinElmer). For stage 1 studies, imaging of infected mice was performed before treatment on day 7 post infection and on days following the treatment (days 8, 9 and 14). Imaging on groups of three mice was performed 12 min after intraperitoneal injection of 150 mg kg^−1 D-luciferin (Promega) in PBS. For stage 2 studies, mice were imaged prior to treatment on day 21, and subsequently on days 22 and 23. On day 23, 24 h after the final dose, mice were sacrificed by cervical dislocation and perfused with PBS containing 15 g L^−1 glucose to allow ex vivo imaging of whole brains (Supplementary Figs. 12 and 13).
Female CD-1 (Charles River UK; 6-8 weeks old) mice were infected with 3 × 10^4 T. b. brucei GVR35-VSL2 bloodstream form parasites intraperitoneally. T. b. brucei GVR35-VSL2 expresses red-shifted luciferase and provides a better signal for imaging (13). Once infection was established, starting on day 7 for Stage 1 studies and day 21 for Stage 2 studies, mice were either left untreated (n=3) or dosed by oral gavage with CTCB compound in Cremophor EL: EtOH : D-PBS (30:10:60 v/v) (n = 6). Additional groups of mice (n=3) that received either a single intraperitoneal dose of diminazene aceturate (Sigma-Aldrich) at 40 mg/kg in sterile water or 0.1 ml melarsoprol gel (14) containing 3.6 mg melarsoprol, applied topically for 3 consecutive days, served as controls for Stage 1 and Stage 2 treatment studies, respectively.
Progression of T. b. brucei GVR35-VSL2 infection was monitored primarily by in vivo bioluminescence imaging of infected mice using an IVIS Spectrum (PerkinElmer) as described previously (5). For stage 1 studies, imaging of infected mice was performed before treatment on day 7 post-infection and in days following the treatment (days 8, 9 and 14). Imaging on groups of three mice was performed 12 minutes after intraperitoneal injection of 150 mg/kg D-luciferin (Promega) in PBS. For stage 2 studies, mice were imaged prior to treatment on day 21 and subsequently on days 22 and 23. On day 23, 24 hours after the final dose, mice were sacrificed by cervical dislocation and perfused with phosphate-buffered saline containing 15 g.L^−1 glucose to allow ex vivo imaging of whole brains. To this end, 100 μl D-luciferin was administered onto the brain surface and imaging performed immediately thereafter.

Data set [2] is described as follows: Plasma protein binding, mouse plasma. The format is in vitro ADME. The procedure: (§1) A HepG2 cytotoxicity assay was used to determine a cellular selectivity index. HepG2 cells were seeded into 96-well plates in EMEM medium. Compounds were assessed for their effect upon cellular viability (Supplementary Methods 5.1). Inhibition of CYP450 was determined using kits from BD Biosciences (Supplementary Methods 5.2). Metabolic stability was determined using mouse […] tested at a single concentration of 5 µM. Plasma protein binding was determined using mouse and human plasma at a single concentration of 10 µM (Supplementary Methods 5.4). All PK studies in mice were carried out by Pharmidex (Supplementary Methods 6.1).
Compounds were tested for protein binding using mouse and human plasma at a single concentration of 10 µM and measured by equilibrium dialysis between plasma and buffer. The amount of parent was determined on both sides of the membrane after incubating for 4 hours at 37 °C. The samples were crashed with acetonitrile and put through protein precipitation plates. The eluent was analysed by LC/MS or LC/MS/MS. Output was percentage bound.

Data set [3] deals with Human hERG (Homo sapiens, UniProt Q12809). Description: Human hERG inhibition. The text has this: Methods are described in Supplementary Methods 5 and 6. Enzyme assay results are means ± SD in multiple assays. ADME results are averages of n = 2 or 3 measurements in individual assays.
(The hERG channel carries a current that helps repolarise heart muscle cells.)

The nature of data set [4]: Metabolic stability, human liver microsomes. The format is in vitro ADME. Conditions: read-out: HLM Clint. The procedure:
as §1
Compounds were tested for their metabolic stability using mouse and human liver microsomes (MLM and HLM). The compounds were tested at a single concentration of 5 µM. The samples were crashed with acetonitrile and put through protein precipitation plates. The eluent was analysed by LC/MS or LC/MS/MS.

Where [5] appears, read: treatment during stage 1 (day 7).
The mark [6] stands for this setting: 10 µM, equilibrium dialysis, read-out: Mouse plasma protein binding fu(%).
Where [7] appears, read: percentage bound, read-out: mouse plasma protein binding value (converted).

Chain of Human hERG (Q12809 whole entry): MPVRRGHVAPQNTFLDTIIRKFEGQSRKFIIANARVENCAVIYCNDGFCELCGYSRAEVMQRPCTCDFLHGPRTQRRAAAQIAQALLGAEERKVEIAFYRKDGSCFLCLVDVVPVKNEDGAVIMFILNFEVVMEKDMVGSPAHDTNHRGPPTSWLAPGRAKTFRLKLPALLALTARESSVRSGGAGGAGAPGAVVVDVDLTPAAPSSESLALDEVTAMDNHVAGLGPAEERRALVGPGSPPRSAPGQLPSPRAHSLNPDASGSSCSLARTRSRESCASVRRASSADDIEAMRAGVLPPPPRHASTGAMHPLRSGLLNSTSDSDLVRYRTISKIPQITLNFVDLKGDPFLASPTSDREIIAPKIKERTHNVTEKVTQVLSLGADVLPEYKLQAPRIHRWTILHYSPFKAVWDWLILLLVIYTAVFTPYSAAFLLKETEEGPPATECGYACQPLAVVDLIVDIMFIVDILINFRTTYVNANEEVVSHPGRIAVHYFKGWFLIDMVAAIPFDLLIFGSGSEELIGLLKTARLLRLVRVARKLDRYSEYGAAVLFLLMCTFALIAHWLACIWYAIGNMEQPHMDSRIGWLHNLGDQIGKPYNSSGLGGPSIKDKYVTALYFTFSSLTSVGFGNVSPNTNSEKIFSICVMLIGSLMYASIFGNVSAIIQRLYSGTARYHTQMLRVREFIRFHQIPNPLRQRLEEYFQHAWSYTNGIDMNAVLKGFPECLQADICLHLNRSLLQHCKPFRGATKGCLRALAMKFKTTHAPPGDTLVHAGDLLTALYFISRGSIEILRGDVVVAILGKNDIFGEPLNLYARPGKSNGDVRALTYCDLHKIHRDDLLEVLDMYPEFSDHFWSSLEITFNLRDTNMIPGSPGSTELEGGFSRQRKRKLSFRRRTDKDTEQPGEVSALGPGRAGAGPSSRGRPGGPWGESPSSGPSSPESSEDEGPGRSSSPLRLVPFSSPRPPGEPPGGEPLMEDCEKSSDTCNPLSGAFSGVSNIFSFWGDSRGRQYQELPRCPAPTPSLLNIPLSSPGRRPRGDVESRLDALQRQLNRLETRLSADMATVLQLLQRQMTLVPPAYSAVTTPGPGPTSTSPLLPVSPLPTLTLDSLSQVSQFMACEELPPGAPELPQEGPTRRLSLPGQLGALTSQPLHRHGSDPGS

In the case of `CN(C)CCn1ccc2c(ccn2Cc2ccc(Cl)c(Cl)c2)c1=O` [CTCB-405, 1-[(3,4-Dichlorophenyl)methyl]-5-[2-(dimethylamino)ethyl] pyrrolo[3,2-c]pyridin-4-one], in data set [1] (setting [5]), the “detection of parasites in blood delayed to” value was found to be 14 day post infection. For the same molecule, the “effect on parasitaemia, stage 1 treatment” value in data set [1] (setting [5]) was “reduced parasitaemia in the body and blood of mice”. Also, the fraction unbound at 4 h, 10 µM is 0.058 in data set [2] (setting [6]) and 0.06 in data set [2] (setting [7]). Besides, in data set [3], the IC50 – broadly, the concentration that inhibits the measured activity by half – amounted to 3.98 µM. Further, the microsomal CLint at 5 µM in data set [4] was below 8.6 µL/min/mg.
`CN(C)CCn1ccc2c(ccn2Cc2ccc(Cl)c(Br)c2)c1=O` [CTCB-470, 1-[(3-Bromo-4-chlorophenyl)methyl]-5-[2-(dimethylamino)ethyl] pyrrolo[3,2-c]pyridin-4-one]: in data set [1], the “Side head bioluminescence - Total Flux” value was 1.100E+07 p/s and 7.724E+06 p/s and 5.606E+06 p/s and 1.306E+06 p/s and 2.050E+07 p/s and 2.702E+06 p/s; the “parasitaemia in brains of saline-perfused mice” value was “very clear reduction in parasitaemia”; the “bioluminescence signal in the body, stage 2 treatment” value was “fast and significant signal reduction in the body”. Besides, the fraction unbound at 4 h, 10 µM in data set [2] (setting [6]) worked out at 0.06. Further, in data set [2] (setting [7]), the fraction unbound at 4 h, 10 µM is 0.058. The same molecule yielded an IC50 in data set [3] of 1.69 µM. In addition, the microsomal CLint at 5 µM in data set [4] was found to be 17 µL/min/mg.
As to `CN(C)CCn1ccc2c(ccn2Cc2ccc(F)c(Br)c2)c1=O` [CTCB-508, 1-[(3-Bromo-4-fluorophenyl)methyl]-5-[2-(dimethylamino)ethyl] pyrrolo[3,2-c]pyridin-4-one], in data set [1], the “Side head bioluminescence - Total Flux” value is 7.338E+06 p/s and 1.920E+06 p/s and 5.353E+06 p/s and 4.553E+06 p/s and 1.258E+07 p/s and 2.035E+07 p/s; the “parasitaemia in brains of saline-perfused mice” value is “very clear reduction in parasitaemia”; the “bioluminescence signal in the body, stage 2 treatment” value was “fast and significant signal reduction in the body”. For the same molecule, in data set [2] (setting [6]), the fraction unbound at 4 h, 10 µM came to 0.18. The same molecule came in with an IC50 in data set [3] of 4.75 µM. Also, in data set [4], the microsomal CLint at 5 µM was below 8.6 µL/min/mg.
